# “Also recorded” adds a separate entry of the source.
# Legend:
# Type in all cases: in vivo, mouse
# [1] = tested on: mice receiving a controlled cortical impact traumatic brain injury (TBI); test: Morris water maze after controlled cortical impact TBI
# Experimental: Trehalose (Sigma) has a generous safety profile in rodents and humans has been posted as “Generally Regarded as Safe” (GRAS) for human consumption by the U.S. Federal Drug Administration (FDA) in October 2000, is used as a food additive, and is also an excipient in many pharmaceuticals, making trehalose a safe, natural and pharmaceutically accepted product. In this study, it was supplied as a 2% w/v in standard suspension vehicle (SSV) solution via oral gavage at a dose of 0.1 ml to 10 g body weight. SSV solution was purchased from Sigma and contains 0.9% sodium chloride (NaCl), 0.5% Sodium carboxymethylcellulose (Na-CMC), 0.5% Benzyl alcohol, 0.4%, Tween 80 (polyoxyethylenesorbitan monooleate).
# (§1) Surgical procedures and controlled cortical impact (CCI) have been previously described (see Portbury et al., 2015, Metallomics. doi:10.1039/c5mt00234f). Briefly, 3 month-old male C57B16 mice were anesthetized via intraperitoneal injection of 100 mg/kg ketamine and 10 mg/kg xylazine. A 10 mm mid-line incision was made over the skull, and the skin and fascia were reflected to make a 4 mm craniotomy on the central aspect of the right parietal bone using a motorized drill. Upon animal positioning in a stereotaxic frame a CCI injury was subsequently delivered (3 m/s velocity with a 1.5 mm penetration depth).
# (§2) Three groups of animals were subjected to TBI as separate experiments. The first group of animals were treated daily with 2% trehalose in SSV solution at 0.1 ml per 10 g body weight via oral gavage for a period of 31 days or SSV solution following the TBI. […] The second groups of animals underwent an identical dosing procedure but were treated with either SSV or maltose as a disaccharide control for trehalose. […] A further group of animals was pre-treated with trehalose prior to TBI. These pre-treated mice received a daily treatment of 2% trehalose in SSV solution at 0.1 ml per 10 g body weight via oral gavage for 7 days prior to TBI. Following TBI, these animals received SSV solution only for the remaining duration of the experiment.
# (§3) The Morris Water Maze (MWM) was used to assess the effect of trehalose on spatial learning and memory function following TBI. The pre-training acclimation day of the water maze was performed on day 23 of dosing, followed by six days of place discrimination training of four 90 second trials per day, conducted on days 24-29 of dosing. The probe trial was performed 24 hours after training on dosing day 30 to assess retention of the task. Data was analysed using the Ethovision automated tracking system. Animals were culled on day 31. Both experimental groups adhered to the same time lines of behavioral assessment. The open field assessment was performed on day 19 of dosing and the Y-maze assessment was performed on day 21 of dosing.
# (§4) For LA-ICPMS samples, statistical analysis was carried out in Prism 7 (Graph-Pad) software. Analysis was carried out with a two-tailed t test with the level of significance set at p=0.05. For multiple comparisons two-way ANOVA was used to identify significant differences between ipsilateral and contralateral ROI's. For western blot analysis, images were produced using Image Studio Lite (version 4.0.21, LI-COR Biosciences) and subsequent statistical analysis was carried out in Prism 7 (Graph-Pad). All behavioral analysis was performed using Prism 7 (Graph-Pad).
# [2] = tested on: mice receiving a controlled cortical impact traumatic brain injury (TBI); test: Open field assessment after TBI; conditions: treated post-TBI, dosing day 19, vs SSV control
# Experimental: as §1, §2, §3, §4
# [3] = tested on: mice receiving a controlled cortical impact traumatic brain injury (TBI); test: Y-maze assessment after TBI
# Experimental: as §1, §2, §3, §4
# [4] = tested on: mice receiving a controlled cortical impact traumatic brain injury (TBI); test: Volumetric analysis of cortical tissue loss after TBI; conditions: treated after TBI; vs controls
# Experimental: as §1, §2
# [5] = tested on: LC3; test: Autophagy by LC3 western blot after TBI; conditions: between trehalose, SSV and maltose treated groups after TBI
# Experimental: as §2
# For the behaviorally assessed animals the cortex and hippocampus of both ipsilateral and contralateral hemispheres were homogenized in 15 volumes of ice-cold PBS containing Complete Protease Inhibitor Cocktail tablets (Roche Applied Science, Indianapolis, Ind., USA) and subsequently centrifuged (100,000×g) for 30 minutes at 4° C. Supernatant was removed to yield the soluble fraction (S1). […] Protein concentrations were determined using Pierce BCA protein assay (Pierce Biotechnology, Rockford, Ill., USA) to ensure equal loading of 10 μg protein samples on gel. […]
# [6] = tested on: synaptophysin; test: Western blot of brain tissue after TBI: synaptophysin
# Experimental: as §2
# (§5) For the behaviorally assessed animals the cortex and hippocampus of both ipsilateral and contralateral hemispheres were homogenized in 15 volumes of ice-cold PBS containing Complete Protease Inhibitor Cocktail tablets (Roche Applied Science, Indianapolis, Ind., USA) and subsequently centrifuged (100,000×g) for 30 minutes at 4° C. Supernatant was removed to yield the soluble fraction (S1). Remaining pellet underwent further extraction via 30 minutes of vigorous agitation in above mentioned homogenization buffer containing 2% (vol/vol) Triton X100. Insoluble material was pelleted via centrifugation (20,000×g) for 20 minutes, and supernatant was retained as the membrane fraction (P1). Protein concentrations were determined using Pierce BCA protein assay (Pierce Biotechnology, Rockford, Ill., USA) to ensure equal loading of 10 μg protein samples on gel. Samples were prepared for PAGE by the addition of 4× protein sample loading buffer (LICOR, Lincoln, Nebr., USA) and 10× NuPAGE sample reducing agent (to a final 1× concentration). Samples were heated to 70° C. for 10 min, loaded onto Bolt 4-12% Bis-Tris Plus gels (Invitrogen-Life Technologies, Grand Island, N.Y., USA) along with Licor One-Color protein molecular weight markers (LICOR, Lincoln, Nebr., USA) and run at 125 V for 60 min in appropriately diluted Bolt MES SDS 20× running buffer (Invitrogen-Life Technologies, Grand Island, N.Y., USA). Gels were transferred to Immobilon—PF, PVDF membrane (Millipore) using the Invitrogen Bolt wet-gel Transfer Device (Invitrogen-Life Technologies, Grand Island, N.Y., USA) at 15 V for 60 min in appropriately diluted 20× Bolt transfer buffer (Invitrogen-Life Technologies, Grand Island, N.Y., USA). […] Blots were rinsed in TBST and incubated with appropriate secondary antibody (1 h, RT), followed by further rinsing and imaged using a LI-COR Odyssey Imaging system (LI-COR Biosciences, Lincoln Nebr., USA), and analysed with Image Studio Lite software (LI-COR Biosciences, Lincoln Nebr., USA). […]
# [7] = tested on: doublecortin (DCX); test: Western blot of brain tissue after TBI: doublecortin
# Experimental: as §2, §5
# [8] = tested on: Pro-BDNF; test: Western blot of brain tissue after TBI: Pro-BDNF
# Experimental: as §2
# as §5, with “concentration).” for “concentration). Samples were heated to 70° C. for 10 min, loaded onto Bolt 4-12% Bis-Tris Plus gels (Invitrogen-Life Technologies, Grand Island, N.Y., USA) along with Licor One-Color protein molecular weight markers (LICOR, Lincoln, Nebr., USA) and run at 125 V for 60 min in appropriately diluted Bolt MES SDS 20× running buffer (Invitrogen-Life Technologies, Grand Island, N.Y., USA). Gels were transferred to Immobilon—PF, PVDF membrane (Millipore) using the Invitrogen Bolt wet-gel Transfer Device (Invitrogen-Life Technologies, Grand Island, N.Y., USA) at 15 V for 60 min in appropriately diluted 20× Bolt transfer buffer (Invitrogen-Life Technologies, Grand Island, N.Y., USA).”
# [9] = tested on: brain derived neurotrophic factor (BDNF); test: Western blot of brain tissue after TBI: BDNF
# Experimental: as §2
# as §5, with “concentration).” for “concentration). Samples were heated to 70° C. for 10 min, loaded onto Bolt 4-12% Bis-Tris Plus gels (Invitrogen-Life Technologies, Grand Island, N.Y., USA) along with Licor One-Color protein molecular weight markers (LICOR, Lincoln, Nebr., USA) and run at 125 V for 60 min in appropriately diluted Bolt MES SDS 20× running buffer (Invitrogen-Life Technologies, Grand Island, N.Y., USA). Gels were transferred to Immobilon—PF, PVDF membrane (Millipore) using the Invitrogen Bolt wet-gel Transfer Device (Invitrogen-Life Technologies, Grand Island, N.Y., USA) at 15 V for 60 min in appropriately diluted 20× Bolt transfer buffer (Invitrogen-Life Technologies, Grand Island, N.Y., USA).”
# [10] = tested on: Tg2576 transgenic mice; test: Morris water maze in Tg2576 Alzheimer's disease model
# Experimental: (§6) Transgenic Tg2576 mice were treated daily with 2% trehalose (0.1 ml/10 g body weight) in SSV (Sigma)(n=15, average age 16.2±3 months of age) via oral gavage or SSV (saline vehicle suspension) (n=12, 16±3 months of age). Mice were dosed for a period of 31 days, with the Morris water maze commencing on day 23 of dosing. Mice were culled on day 31, and DCX and synaptophysin expression were assessed.
# [11] = tested on: synaptophysin; test: Synaptophysin expression in Tg2576 brain
# Experimental: as §5, with “USA).” for “USA). Gels were transferred to Immobilon—PF, PVDF membrane (Millipore) using the Invitrogen Bolt wet-gel Transfer Device (Invitrogen-Life Technologies, Grand Island, N.Y., USA) at 15 V for 60 min in appropriately diluted 20× Bolt transfer buffer (Invitrogen-Life Technologies, Grand Island, N.Y., USA).”
# as §6, with “Mice were dosed for a period of 31 days, with the Morris water maze commencing on day 23 of dosing.” left out
# [12] = tested on: doublecortin (DCX); test: Doublecortin expression in Tg2576 brain; conditions: Tg2576 hippocampus; vs SSV littermates
# Experimental: as §5, with “concentration).” for “concentration). Samples were heated to 70° C. for 10 min, loaded onto Bolt 4-12% Bis-Tris Plus gels (Invitrogen-Life Technologies, Grand Island, N.Y., USA) along with Licor One-Color protein molecular weight markers (LICOR, Lincoln, Nebr., USA) and run at 125 V for 60 min in appropriately diluted Bolt MES SDS 20× running buffer (Invitrogen-Life Technologies, Grand Island, N.Y., USA). Gels were transferred to Immobilon—PF, PVDF membrane (Millipore) using the Invitrogen Bolt wet-gel Transfer Device (Invitrogen-Life Technologies, Grand Island, N.Y., USA) at 15 V for 60 min in appropriately diluted 20× Bolt transfer buffer (Invitrogen-Life Technologies, Grand Island, N.Y., USA).”
# [13] = pre-treated 7 days before TBI, vs SSV littermates
# [14] = treated post-TBI, dosing day 21, vs SSV
# [15] = treated post-TBI, dosing day 21, vs SSV, listed as Trehalose
# [16] = contralateral cortex, vs SSV and maltose
# [17] = contralateral cortex, vs SSV and maltose, listed as Trehalose
# [18] = contralateral hippocampus or ipsilateral cortex and hippocampus
smiles,measurement,setting,value
OC[C@H]1O[C@H](O[C@H]2O[C@H](CO)[C@@H](O)[C@H](O)[C@H]2O)[C@H](O)[C@@H](O)[C@@H]1O [trehalose],"learning component, Morris water maze","[1]; pre-treated 7 days before TBI with 2% oral gavage, SSV only after TBI, vs SSV controls","outperformed SSV controls in the learning (FIG. 1a) component of the water maze trial, although not significantly"
same,"recall component, Morris water maze","[1]; pre-treated 7 days before TBI with 2% oral gavage, SSV only after TBI, vs post-treated mice and SSV controls",significantly outperform trehalose post-treated mice and SSV controls
same,"escape latency / acquisition of the task (learning component), Morris water maze","[1]; treated post-TBI daily by oral gavage, 2% in SSV, 0.1 ml per 10 g, vs SSV controls, training on dosing days 24-29",overall significant performance improvement
same,"probe day 24-hour task retention (recall component), Morris water maze","[1]; treated post-TBI daily by oral gavage, 2% in SSV, vs SSV controls, dosing day 30",overall significant performance improvement; also recorded: significant improvement in memory
same,"ambulatory time, open field",[2],significant increase
same,"ambulatory velocity, open field",[2],no significant difference
same,"total ambulatory distance, open field",[2],significant increase
same,"vertical counts, open field",[2],significant increase
same,"ambulatory velocity, open field",[2]; listed as Trehalose,without a significant increase
same,"five-minute frequency, Y-maze",[3]; [13],performed significantly better
same,"one-minute duration, Y-maze",[3]; [13],performed significantly better
same,"one-minute frequency, Y-maze",[3]; [13],performed significantly better
same,"five-minute duration, Y-maze","[3]; pre-treated 7 days before TBI, vs post-treatment and SSV mice",significantly outperformed both the trehalose post-treatment and SSV treated mice
same,"five-minute frequency of visits into the novel arm, Y-maze",[3]; [14],significantly enhanced
same,"one-minute duration of time in the novel arm, Y-maze",[3]; [14],significantly greater duration of time in the novel arm; also recorded: significant overall duration of time in the novel arm
same,"one-minute frequency of visits into the novel arm, Y-maze",[3]; [14],significantly enhanced
same,"five-minute frequency of visits into the novel arm, Y-maze",[3]; [15],significant overall frequency of visitation preference for the novel arm
same,"one-minute frequency of visits into the novel arm, Y-maze",[3]; [15],significant overall frequency of visitation preference for the novel arm
same,cortical tissue loss,[4],no difference
same,enhancement in autophagy (LC3),[5],not detectable
same,synaptophysin protein expression,"[6]; contralateral cortex, 31 days post-TBI, vs SSV and maltose controls",significantly elevated expression
same,synaptophysin protein expression,"[6]; contralateral cortex, 31 days post-TBI, vs SSV and maltose controls, listed as Trehalose",significantly increased
same,synaptophysin protein expression,"[6]; contralateral hippocampus, ipsilateral cortex and hippocampus",no significant elevation
same,synaptophysin protein expression,"[6]; ipsilateral hippocampus, vs control groups",non-significant elevation
same,DCX protein,"[7]; contralateral cortex, vs SSV and maltose controls",significant increase
same,DCX protein,"[7]; contralateral cortex, vs SSV and maltose controls, listed as Trehalose",significantly increases
same,DCX protein,"[7]; contralateral hippocampus or ipsilateral cortex and hippocampus, vs control groups",absence of elevated DCX
same,DCX expression,"[7]; ipsilateral cortex and hippocampus, vs SSV and maltose controls",significantly decreased
same,pro-BDNF protein,[8]; [16],significant increase
same,pro-BDNF protein,[8]; [17],significantly increased
same,pro-BDNF protein,[8]; [18],not significantly elevated
same,BDNF protein,[9]; [16],significant increase
same,BDNF protein,[9]; [17],significantly increased
same,BDNF protein,[9]; [18],not significantly elevated
same,cognitive improvement in the Morris water maze,[10]; 2% trehalose daily oral gavage for 31 days,significant cognitive improvement
same,"escape latency, Morris water maze","[10]; 2% trehalose daily oral gavage for 31 days, vs Tg2576 SSV littermates",significant decrease
same,"time spent in the relevant quadrant, Morris water maze","[10]; 2% trehalose daily oral gavage, vs SSV littermates",significant (p<0.0003) increase
same,synaptophysin protein expression,"[11]; Tg2576 cortex, trehalose vs SSV",no significant difference
same,synaptophysin protein expression,"[11]; Tg2576 hippocampus, vs SSV littermates",increased
same,synaptophysin protein expression,"[11]; Tg2576 hippocampus, vs SSV littermates, listed as Trehalose",significant increase
same,DCX protein expression,[12],increased; also recorded: significant (p<0.0401) increase
